According to US20250368626A1, “SOLID FORMS OF 2-(3,5-DICHLORO-4-((5-ISOPROPYL-6-OXO-1,6-DIHYDROPYRIDAZIN-3-YL)OXY)PHENYL)-3,5-DIOXO-2,3,4,5-TETRAHYDRO-1,2,4-TRIAZINE-6-CARBONITRILE” (Madrigal Pharmaceuticals, Inc., priority 2018, published 2025):
Values after ≈ are worked out from the molar mass of the structure shown. Each block holds one compound with its values, some of them ahead of it.

What was measured:
[1] = Kinetic and thermodynamic solubility of Compound A and the glutaric acid co-crystal in FaSSGF, FaSSIF and water at 37° C. (HPLC); type: physicochemical; conditions: for Solubility / solubility at 1 h / solubility at 24 h: 37° C.; for pH: pH of the slurry; for XRPD after slurry: solid form after slurry
Experimental: The kinetic and thermodynamic solubility of the glutaric acid co-crystal was assessed in simulated fasted state gastric and intestinal fluids (FaSSGF and FaSSIF) and also in water. The pH of the system was also measured. The solubility assessment was also performed on Compound A for comparison. […] Samples were collected after 24 hours for equilibrium solubility measurement.

[2] = Dynamic vapor sorption (DVS) of the glutaric acid co-crystal; type: physicochemical
Source text: FIG. 83 is a dynamic vapor sorption (DVS) isotherm of the glutaric acid co-crystal of Compound A showing a total mass gain of 1.12% by weight between 2% and 95% relative humidity environments.
No difference in the XRPD pattern was seen after the DVS analysis, the XRPD patterns before and after DVS analysis are shown in FIG. 84.

[3] = Stability of the co-crystal at 75% RH at 40° C. for 1 week; type: physicochemical
[4] = Solubility of salts of Compound A in FaSSGF, FaSSIF and water at 37° C.; conditions: for Solubility: 37° C.
[5] = Physical form stability of scaled-up salts at 75% relative humidity for 1 week; type: physicochemical
[6] = Water, value of the 100X dil sample
[7] = solid after solubility test in FaSSGF, by XRPD

Compound: CC(C)c1cc(Oc2c(Cl)cc(-n3nc(C#N)c(=O)[nH]c3=O)cc2Cl)n[nH]c1=O.O=C(O)CCCC(=O)O [Glutaric acid co-crystal]
- Solubility ([1]; FaSSGF, Equilibrium-24 hours): 1 µg/mL
- Solubility ([1]; FaSSGF, Kinetic-1 hour): 0.1 µg/mL
- Solubility ([1]; FaSSIF, Equilibrium-24 hours): 478.1 µg/mL
- Solubility ([1]; FaSSIF, Kinetic-1 hour): 239.9 µg/mL
- Solubility ([1]; Water, Equilibrium-24 hours): 1.6 µg/mL
- Solubility ([1]; Water, Kinetic-1 hour): 0.3 µg/mL
- pH ([1]; FaSSGF, Equilibrium-24 hours): 1.66
- pH ([1]; FaSSIF, Equilibrium-24 hours): 6.31
- pH ([1]; Water, Equilibrium-24 hours): 4.27
- XRPD after slurry ([1]; FaSSGF, Equilibrium-24 hours): Dihydrate
- XRPD after slurry ([1]; FaSSIF, Equilibrium-24 hours): Dihydrate
- XRPD after slurry ([1]; Water, Equilibrium-24 hours): Dihydrate
- hygroscopicity ([2]; DVS, 2% to 95% RH): not hygroscopic
- mass gain (DVS) ([2]; between 2% and 95% relative humidity, by weight): 1.12%
- XRPD pattern after DVS analysis compared with the starting material ([2]; listed as co-crystal): No difference
- XRPD pattern after DVS analysis compared with the starting material ([2]; listed as glutaric acid co-crystal): no change was observed
- stability [3]: stable

Compound: CC(C)c1cc(Oc2c(Cl)cc(-n3nc(C#N)c(=O)[nH]c3=O)cc2Cl)n[nH]c1=O.O.O [Free form dihydrate]
- Solubility ([4]; FaSSGF): 6.7 µg/mL
- Solubility ([4]; FaSSIF): 2900 µg/mL
- Solubility ([4]; Water): 100 µg/mL

Compound: CC(C)c1cc(Oc2c(Cl)cc(-n3nc(C#N)c(=O)[n-]c3=O)cc2Cl)n[nH]c1=O.[K+] [K]
- Solubility ([4]; FaSSGF): 1.2 µg/mL
- Solubility ([4]; FaSSIF): 2720 µg/mL
- Solubility ([4]; Water): > 21300 µg/mL
- Solubility [4, 6]: 210 µg/mL
- Resulting form ([4]; after solubility test in Water): Clear solution
- Resulting form [4, 7]: Dihydrate

Compound: CC(C)c1cc(Oc2c(Cl)cc(-n3nc(C#N)c(=O)[n-]c3=O)cc2Cl)n[nH]c1=O.[Na+] [Na]
- Solubility ([4]; FaSSGF): 0.8 µg/mL
- Solubility ([4]; FaSSIF): 2500 µg/mL
- Solubility ([4]; Water): > 25000 µg/mL
- Solubility [4, 6]: 250 µg/mL
- Resulting form ([4]; after solubility test in Water): Clear solution
- Resulting form [4, 7]: Dihydrate

Compound: CC(C)c1cc(Oc2c(Cl)cc(-n3nc(C#N)c(=O)[n-]c3=O)cc2Cl)n[nH]c1=O.CC(C)c1cc(Oc2c(Cl)cc(-n3nc(C#N)c(=O)[n-]c3=O)cc2Cl)n[nH]c1=O.[Ca+2] [Hemi Ca]
- physical form stability compared with starting solids [5]: changes were observed
- Solubility ([4]; FaSSGF): 2.5 µg/mL
- Solubility ([4]; FaSSIF): 800 µg/mL
- Solubility ([4]; Water): 320 µg/mL
- Resulting form ([4]; after solubility test in Water): Dihydrate
- Resulting form [4, 7]: Dihydrate

Other lines, results leading:

- solubility at 1 h ([1]; fassgf or other biorelevant, thermodynamic from solid, FaSSGF, Kinetic-1 hour): 1.1 µg/mL (≈ 2.53 µM)
- solubility at 24 h ([1]; pH 1.67, fassgf or other biorelevant, thermodynamic from solid, FaSSGF, Equilibrium-24 hours): 1.1 µg/mL (≈ 2.53 µM)
- solubility at 24 h ([1]; pH 6.44, thermodynamic from solid, FaSSIF, Equilibrium-24 hours): 552 µg/mL (≈ 1270 µM)
- solubility at 24 h ([1]; pH 6.57, thermodynamic from solid, Water, Equilibrium-24 hours): 193 µg/mL (≈ 443 µM)
- pH ([1]; FaSSGF, Equilibrium-24 hours): 1.67
- pH ([1]; FaSSIF, Equilibrium-24 hours): 6.44
- pH ([1]; Water, Equilibrium-24 hours): 6.57
- XRPD after slurry ([1]; FaSSGF, Equilibrium-24 hours): Form-A
- XRPD after slurry ([1]; FaSSIF, Equilibrium-24 hours): Form-A
- XRPD after slurry ([1]; Water, Equilibrium-24 hours): Dihydrate
- solubility at 1 h ([1]; thermodynamic from solid, FaSSIF, Kinetic-1 hour): 490 µg/mL (≈ 1120 µM)
- solubility at 1 h ([1]; thermodynamic from solid, Water, Kinetic-1 hour): 25.9 µg/mL (≈ 59.5 µM)
Compound: CC(C)c1cc(Oc2c(Cl)cc(-n3nc(C#N)c(=O)[nH]c3=O)cc2Cl)n[nH]c1=O [Form A, 2-(3,5-dichloro-4-((5-isopropyl-6-oxo-1,6-dihydropyridazin-3-yl)oxy)phenyl)-3,5-dioxo-2,3,4,5-tetrahydro-1,2,4-triazine-6-carbonitrile]

- Solubility ([4]; FaSSGF): 100 µg/mL
- Solubility ([4]; FaSSIF): 4500 µg/mL
- Solubility ([4]; Water): 200 µg/mL
Compound: CC(C)c1cc(Oc2c(Cl)cc(-n3nc(C#N)c(=O)[nH]c3=O)cc2Cl)n[nH]c1=O [Free form Anhydrous]
